{"source": "patent US10028971B2", "about": "“Compositions and methods for treating psychiatric disorders” (GOSFORTH CENTRE (HOLDINGS) PTY LTD., priority 2008, dated 2018)", "key": {"[1]": {"tested_on": "individual with a history of a head injury", "test": "Head injury with acquired ADHD syndrome, clinical case", "format": "in vivo, human", "conditions": "person", "source_text": "A person, no history of ADHD in childhood. Involved in a serious motor vehicle accident the with a depressed skull fracture and frontal lobe involvement. Subsequent history consistent with a acquired syndrome of ADHD. Subsequent development of co-morbid diagnoses included in alcohol dependence, pathological gambling and major depression."}, "adults with ADHD": {"tested_on": "adults with ADHD", "method": "In the clinical setting a number of adults with ADHD experienced a combination therapy of stimulant medication (dexamphetamine) in combination with sodium valproate (VPA). The initial dosages used were from 15 to 70 mg/day of dexamphetamine and from 100 to 700 mg/day of VPA (Epilim) (=approximately 2 to 10 mg/kg/day).\nThe determination of the dose for the dexamphetamine was undertaken in a clinical sensitive open label manner. The dose was titrated upwards dependent on the clinical response and the freedom from side-effects. The dose range was between 15 and 70 mg a day. The frequency of the dosing also varied dependent upon the clinical response. The usual dose interval was between two to four hours. This dosing adjustment took place prior to the commencement of the sodium valproate. The sodium valproate medication was initiated once a day at 50 mg tablet or elixir and titrated upwards dependent on response, but not more than one increase every three days. The dose was given as a once or twice a day regime. During the titration phase, if clinically possible, no other adjustments to the pharmacotherapy were undertaken."}, "[2]": {"tested_on": "mood stabilisation or epileptic symptoms or events", "conditions": "adults, cited from earlier work"}, "[3]": {"tested_on": "individuals with sleep disorders", "test": "Sleep disorders, clinical observation", "format": "in vivo, human", "conditions": "person, chronic insomnia, restless legs; sodium valproate added to dexamphetamine 25 mg"}, "[4]": {"tested_on": "patients with substance addiction", "test": "Treatment of addictions, clinical observation", "format": "in vivo, human", "conditions": "for clinical outcome (case): person", "source_text": "Addiction to amphetamines poses a number of unique challenges."}, "[5]": {"tested_on": "adherence to medication regime", "conditions": "person", "excerpt": "As a result, taking medication becomes an automatic activity which doesn't require a high level of attention and motivation.\nThe individual experiences an improvement in the ability to efficiently and effectively attend to a task in hand, without also needing to expend extra cognitive effort to remember which medication to take and at what times."}, "[6]": {"tested_on": "individuals with MCI or dementia", "test": "Mild cognitive impairment and dementia, clinical cases (Developmental Eye Movement test, Alzheimer's Quick Test)", "format": "in vivo, human", "conditions": "person", "source_text": "A married person with a history of good cognitive functioning until last 4-5 yrs when noted by both their spouse and themself to becoming increasingly socially withdrawn primarily because of the difficulty in listening without distraction during social interaction, no known childhood or adult history of prior attentional or impulsive disorders. It has been clinically observed by the inventor that individuals treated with low dose antiepileptic were enhanced in their ability to discriminate irrelevant from the relevant sound was enhanced. […] On ceasing the medication there was an initial improvement again over the preceding 3 to 7 days followed by a loss of the therapeutic effects and returned to their pre-medication function. On the ressumption of the 12.5 mg phenytoin there was a return of the improved function. On this second occasion they were more aware of the benefits and also the gradual return of the detrimental clinic effects. During the clinical assessment it was noted that they had more flexibility in their conversation and more natural use of non-verbal cues, there was also enhancement of their egocentric gaze. […] These benefits were also noted by their spouse. […] Again these medications were ceased resulting in a loss of associated benefits. With each trial of medication they became more apparent to the patient and their spouse of the benefits of the therapy. They attempted whilst not taking the medication to communicate and follow the conversation in a way that they had been able to whilst on treatment. They found when attempting to do so they became mentally exhausted and unable to sustain the effort required for the interaction. The improvements noted clinically and also recorded using the Developmental Eye Movement test and a measure of parietal function the Alzheimer's Quick Test. Married person diagnosed with fronto-temporal dementia. they had been assessed by neuropsychologist, and geriatrician and psychiatrist to confirm this diagnosis. […] They then relied on others to make decisions for […]. They had gradually become socially disengaged finding such interactions distressing and demanding. […] Despite ongoing difficulties of word finding they were able to socially interact more spontaneously than they had done for many years. And have confidence in areas of conversation that they previously would have avoided. […] On two occasions the medication was withdrawn and then reintroduced, due to the experimental nature of treatment and concern that there might be a significant placebo effect. […] Following the subsequent reduction there was a return of the improvement previously noted."}, "[7]": {"tested_on": "individuals with developmental dyspraxia / poor coordination", "test": "Treatment of developmental dyspraxia, clinical observation", "format": "in vivo, human", "conditions": "person", "source_text": "Many of the individuals treated at this clinic, with a diagnosis of ADHD and/or pervasive development disorder such Asperger's Syndrome or autism also present with symptoms consistent with a diagnosis of a developmental coordination disorder. They are often described as ‘unco’ (unco-ordinated) by their peers and experience victimization, poor self-esteem and frustration as a consequence of their poor coordination. […] Individuals have described a sense of having more time to coordinate movements and to understand and integrate their own activity appropriately within a team sport such as soccer, which has previously eluded them. Individuals have felt frustration at being able to practise repeatedly an activity or skill only to be unable to put it into practice when required, within the play of a match. It is proposed that individuals were previously unable to process and plan their own coordination but remain aware of the general activity in which they were participating."}}, "note": "Read-outs that look alike come from different tables or passages of the source."}
{"smiles": "CCCC(CCC)C(=O)O.[Na]", "note": "[sodium valproate, sodium di-n-propylacetic acid]", "values": [{"measurement": "clinical outcome (case)", "setting": "[1]; sodium valproate 150 mg added to dexamphetamine 50 mg", "value": "Improved social interaction and egocentric eye gaze"}, {"measurement": "clinical outcome (case)", "setting": "[1]; sodium valproate above 150 mg", "value": "loss of benefit"}, {"measurement": "clinical outcome (case)", "setting": "adults with ADHD; adult female, sodium valproate maximum 150 mg added to methylphenidate", "value": "Improvement"}, {"measurement": "group outcome of combination therapy", "setting": "adults with ADHD; adults with ADHD, Methylphenidate 40 mg/d, Valproate 100 mg/d, Phenytoin 50 mg/d", "value": "successfully treated"}, {"measurement": "clinical assessment under combination therapy", "setting": "adults with ADHD; adults with ADHD, Valproate 50-300 mg/d with Dexamphetamine 20-75 mg/d", "value": "overall improvement in psychosocial functioning"}, {"measurement": "group outcome of combination therapy", "setting": "adults with ADHD; adults with ADHD, dexamphetamine 20-45 mg/d, Valproate 100-400 mg/d, Phenytoin 12.5-50 mg/d", "value": "successfully treated"}, {"measurement": "group outcome of combination therapy", "setting": "adults with ADHD; adults with ADHD, median 40 mg/d Dexamphetamine, 120 mg/d Sodium Valproate, 25 mg/d Topiramate", "value": "successfully treated"}, {"measurement": "group outcome of combination therapy", "setting": "adults with ADHD; adults with ADHD, methylphenidate 30-125 mg/d with Valproate 50-200 mg/d", "value": "successfully treated"}, {"measurement": "effect of higher doses", "setting": "adults with ADHD; human, in vivo", "value": "general cognitive slowing and the resultant loss of efficacy"}, {"measurement": "clinical outcome (case)", "setting": "adults with ADHD; person, ADHD, anorexia nervosa, borderline personality disorder, sodium valproate 200 mg with dexamphetamine", "value": "responded"}, {"measurement": "clinical outcome (case)", "setting": "adults with ADHD; person, ADHD, low dose sodium valproate 50 mg added to psycho stimulant", "value": "improvement in their egocentric gaze and improved cognition"}, {"measurement": "clinical outcome (case)", "setting": "adults with ADHD; person, ADHD, sodium valproate 100 mg a day added to dexamphetamine 40 mg", "value": "improvement with more organised thoughts"}, {"measurement": "self-described improvement in ability to study", "setting": "adults with ADHD; person, ADHD, sodium valproate (50 mg) added to psycho stimulant", "value": 50, "unit": "%"}, {"measurement": "clinical outcome (case)", "setting": "adults with ADHD; person, 100 mg sodium valproate added to methylphenidate 55 mg", "value": "enhanced ability to maintain conversation, improved cognition, improved assertiveness and self organisation"}, {"measurement": "clinical outcome (case)", "setting": "adults with ADHD; person, sodium valproate (up to 500 mg a day) added to dexamphetamine 20 mg", "value": "Further benefit"}, {"measurement": "clinical outcome (case)", "setting": "adults with ADHD; person, sodium valproate maximum 400 mg added to dexamphetamine", "value": "good effect"}, {"measurement": "clinical outcome (case)", "setting": "adults with ADHD; person, valproate dose reached 150 mg, with psycho stimulant", "value": "benefits were lost"}, {"measurement": "dose range in which control of symptoms of mania occurs", "setting": "[2]; mania (e.g. bipolar disorder), Epilim product information (Sanofi-Aventis)", "value": "1,000 to 2,000 mg/day"}, {"measurement": "dose range in which control of symptoms of mania occurs", "setting": "[2]; mania, Epilim product information", "value": "20 to 30", "unit": "mg/kg/day"}, {"measurement": "clinical outcome on sleep (case)", "setting": "[3]", "value": "less effort was required to initiate sleep"}, {"measurement": "clinical outcome (case)", "setting": "[4]; methamphetamine use, 100 mg/d Valproate with 50 mg/d dexamphetamine", "value": "robust improvement in attention and concentration abilities"}, {"measurement": "clinical outcome (case)", "setting": "[4]; sodium valproate 50 mg increased to 200 mg with dexamphetamine", "value": "reduced dependence on marijuana and ceased alcohol consumption"}, {"measurement": "clinical outcome", "setting": "[4]; two patients, ADHD and methamphetamine addiction, Valproate 50 to 100 mg/d with 50 mg/d dexamphetamine", "value": "responded well"}, {"measurement": "clinical outcome (case)", "setting": "[5]; complex regime, no ADHD, ASD or dementia, Sodium valproate 100 mg added", "value": "enhanced ability to track their thoughts with less effort"}, {"measurement": "clinical outcome (case)", "setting": "[5]; sodium valproate reduced to 100 mg with dexamphetamine 40 mg", "value": "improved efficacy, cognition, organisation and compliance with medication"}, {"measurement": "clinical outcome (case)", "setting": "[6]; sodium valproate 40 mg", "value": "enhanced ability to follow the train of conversation"}, {"measurement": "clinical outcome (case)", "setting": "[6]; sodium valproate 80 mg", "value": "loss of these benefits"}, {"measurement": "clinical outcome (case)", "setting": "[7]; ADHD, dexamphetamine 25 mg daily augmented with atomexetine 60 mg and sodium valproate 150 mg", "value": "Significant improvement in psychosocial functioning"}, {"measurement": "clinical outcome (case)", "setting": "[7]; Sodium valproate 50 mg increased to 100 mg with stimulant", "value": "improved coordination, improved school attendance, improved cognition and report grades"}]}
